From US20110144000A1, “ANTIMICROBIAL POLYPEPTIDE” (priority 2007, published 2011)

What was measured:
[1] = system: Staphylococcus aureus (strain 5120); assay: Viable count bactericidal assay; format: cell-based; conditions: 1 h at 37° C., at below micromolar concentrations
Description: (§1) The GAS strain AP1 (40/58) of M1 serotype was from the World Health Organization Collaborating Centre for Reference and Research on Streptococci, Prague, Czech Republic. Streptococcus pyogenes (strain AP1) and Streptococcus Dysgalactiae, sub species equisimilis (strain G41), Staphylococcus aureus (strain 5120), Pseudomonas aeruginosa (strain 1553 initially isolated from a chronic venous ulcer) and Escherichia coli (strain 37.4) were routinely grown in Todd-Hewitt (TH) liquid medium in 5% CO2 and at 37° C. The bacterial strains were obtained from Division of Infection Medicine, Department of Clinical Sciences, Lund University, BMC B14, Tornavagen 10, SE-221 84 Lund, Sweden.
(§2) Bacteria were cultivated to mid-log phase (OD620 0.4) in Todd-Hewitt broth, washed, and diluted in incubation buffer (10 mM Tris-Hcl pH 7.4 containing 5 mM glucose). Pseudomonas aeruginosa was grown for 18 hours at 37° C. 50 μl of bacteria (1×10^6 colony forming units (cfu)/mL) were incubated together with various concentrations of peptide or buffer alone for 1 h at 37° C. In order to quantify bactericidal activity, serial dilutions of the incubation mixtures were plated on TH agar. The number of resulting cfu:s were related to bacteria incubated with buffer alone and the results expressed as % killing.
(§3) GCP-2/CXCL6 (SEQ ID NO:3) as well as parts of CXCL6, i.r., SEQ ID NO:1 and 2 being part of CXCL6 was examined for antibacterial activity against a panel of bacteria relevant during infections of dermis and mucosal surfaces. The bacteria included Gram-positive (Group A streptococci, group G streptococci, and S. aureus) and G-negative (E. coli and P. aeruginosa) bacteria (FIG. 1 a). […] To delineate what regions of the GCP-2/CXCL6 molecule that are responsible for antibacterial activity, a 50 amino acid fragment of the NH2-terminal region (GPV-50) of GCP-2/CXCL6 and a 19 amino acid fragment (APF-19) of the COOH-terminal region (a region with a putative amphiphatic alpha-helical structure), was compared with the GCP-2/CXCL6 holopeptide. Antibacterial activity was investigated against S. pyogenes and E. coli.

[2] = system: Streptococcus Dysgalactiae, sub species equisimilis (strain G41); assay: Viable count bactericidal assay; format: cell-based; conditions: 1 h at 37° C., at below micromolar concentrations
Description: as §1, §2, §3

[3] = system: Streptococcus pyogenes (strain AP1); assay: Viable count bactericidal assay; format: cell-based; conditions: for antibacterial activity compared with GCP-2/CXCL6 holopeptide: fragment comparison, FIG. 1b
Description: as §1, §2, §3

[4] = system: Pseudomonas aeruginosa (strain 1553); assay: Viable count bactericidal assay; format: cell-based; conditions: 1 h at 37° C., at below micromolar concentrations
Description: as §1, §2, §3

[5] = system: Escherichia coli (strain 37.4); assay: Viable count bactericidal assay; format: cell-based; conditions: for antibacterial activity compared with GCP-2/CXCL6 holopeptide: fragment comparison, FIG. 1b
Description: as §1, §2, §3

Neisserria gonorrhoea = assay: Viable count bactericidal assay against N. gonorrhoeae; format: cell-based, Neisseria gonorrhoeae; conditions: mean, ±SEM
Procedure: as §2
The anti-bacterial activity of the GCP-2/CXCL6 (SEQ ID NO:3) against the gram-negative bacteria Neisserria gonorrhoea was determined using the previously described experimental set-up (See Example 3).

bacteria = conditions: literature (Yang et al., 2003; Cole et al., 2001); cited from earlier work
Enterococcus faecalis = assay: Viable count bactericidal assay against E. faecalis; format: cell-based; conditions: mean, ±SEM
Procedure: as §2
The anti-bacterial activity of the GCP-2/CXCL6 (SEQ ID NO:3) against the gram-positive, facultatively anaerobic bacteria Enterococcus faecalis was determined using the previously described experimental set-up (See Example 3).

[6] = viable count, 1 h at 37° C., at below micromolar concentrations

In the case of “GCP-2/CXCL6: Recombinant human chemokine GCP-2/CXCL6 (SEQ ID NO:3) from PeproTech”, the bactericidal effect [1] is reported as “bactericidal effect”, the bactericidal effect [2] is reported as “bactericidal effect” and the bactericidal effect [3, 6] is reported as “bactericidal effect”. The bactericidal effect [4] was “bactericidal effect”, the bactericidal effect [5, 6] was “bactericidal effect” and the MBC50 (Neisserria gonorrhoea) was 0.3 ± 0.1 μM (mean, ±SEM). The MBC90 (Neisserria gonorrhoea) was 0.8 ± 0.1 µM, the activity against bacteria (bacteria) was “no activity” and the MBC50 (Enterococcus faecalis) was 0.46 ± 0.03 μM (mean, ±SEM). The MBC90 (Enterococcus faecalis) was 0.90 ± 0.00 µM.
In the case of “CXCL5: related ELR-positive CXC chemokine, closest sequence homology to CXCL6 [reference compound]”, the activity against bacteria (bacteria) is given as “no activity against bacteria”.
With “APFLKKVIQKILDSGNKKN (CXCL6 peptide) [APF-19, 19 amino acid fragment of the COOH-terminal region of GCP-2/CXCL6]” the “antibacterial activity compared with GCP-2/CXCL6 holopeptide” value [3] was “less antibacterial than the holopeptide” and the “antibacterial activity compared with GCP-2/CXCL6 holopeptide” value [5] was “less antibacterial than the holopeptide”.
In the case of “GPVSAVLTELRCTCLRVTLRVNPKTIGKLQVFPAGPQCSKVEVVASLKNG (CXCL6 peptide) [GPV-50, 50 amino acid fragment of the NH2-terminal region of GCP-2/CXCL6]”, the “antibacterial activity compared with GCP-2/CXCL6 holopeptide” value [3] is reported as “higher antibacterial activity than APF-19” and the “antibacterial activity compared with GCP-2/CXCL6 holopeptide” value [5] is reported as “higher antibacterial activity than APF-19”.
